Drawing on patent EP4818159A1 (Kissei Pharmaceutical Co., Ltd., priority 2023, dated 2025), this text covers IC50 for 30 molecules.

A value given as a limit tells only on which side of the number the result lay.

T1 sequence (P16473 21-764): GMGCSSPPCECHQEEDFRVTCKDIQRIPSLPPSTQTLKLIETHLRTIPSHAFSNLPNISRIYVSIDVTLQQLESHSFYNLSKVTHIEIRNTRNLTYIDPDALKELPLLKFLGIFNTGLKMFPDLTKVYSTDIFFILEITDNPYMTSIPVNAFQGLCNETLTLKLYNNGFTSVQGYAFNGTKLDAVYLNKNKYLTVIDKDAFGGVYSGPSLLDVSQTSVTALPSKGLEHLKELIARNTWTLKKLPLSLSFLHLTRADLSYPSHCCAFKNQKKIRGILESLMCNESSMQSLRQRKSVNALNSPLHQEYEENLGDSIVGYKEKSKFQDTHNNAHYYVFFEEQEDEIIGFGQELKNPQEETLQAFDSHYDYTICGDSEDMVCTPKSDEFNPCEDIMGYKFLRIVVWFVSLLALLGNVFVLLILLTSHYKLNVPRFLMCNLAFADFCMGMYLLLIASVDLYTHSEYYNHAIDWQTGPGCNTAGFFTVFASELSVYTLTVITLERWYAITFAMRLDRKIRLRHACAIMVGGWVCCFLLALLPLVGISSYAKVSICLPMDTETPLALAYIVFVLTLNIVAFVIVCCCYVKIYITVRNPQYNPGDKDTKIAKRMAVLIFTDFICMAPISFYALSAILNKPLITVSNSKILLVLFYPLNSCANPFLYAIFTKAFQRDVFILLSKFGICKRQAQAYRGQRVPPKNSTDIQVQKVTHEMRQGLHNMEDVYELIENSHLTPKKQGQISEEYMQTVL

This experiment has as its target T1, human TSHR (Homo sapiens, UniProt P16473).
T1 construct: expressed in transfected cells
Description: Antagonist activity using TSH-induced cAMP production in human TSHR-stably expressing CHO cells. The class given is cell-based. Particulars: human TSH final concentration of 50 ng/mL, cAMP production rate. As to the method:
Measurement of antagonist activity using TSH-induced cAMP production in human TSHR-stably expressing CHO cells as an indicator
The gene sequence (reference number NM_000369.2) of human TSHR was inserted into the multiple cloning site of pcDNA3.1(+). The prepared plasmid vector was introduced into CHO cells using a lipofection method to establish human TSHR-stably expressing CHO cells. The obtained cells were seeded at 5 x 10^4 cells/well in a 96-well poly-D-lysine-coated plate, and cultured in an F12 culture medium containing 10% FBS, 400 µg/mL of G418, 50 U/mL of penicillin and 50 µg/mL of streptomycin under conditions of 37°C and 5% CO2 for 1 day. The culture medium was removed, and the cells were then washed twice with 100 µL of an assay buffer (Hanks' Balanced Salt Solution containing 20 mM HEPES and 1 mM IBMX) per well. 30 µL of an assay buffer containing a test compound was added to the well, and incubation was performed at room temperature for 15 minutes. Then, 30 µL of an assay buffer containing human TSH (a final concentration of 50 ng/mL, R&D Systems, Inc.) was added, and incubation was performed at 37°C for 1 hour. The supernatant was removed, a Lysis and Detection Buffer 2 (Cisbio) was added, and incubation was performed at room temperature for 1 hour to prepare a cell lysate. According to the instruction manual of a cAMP Gs HiRange kit (Cisbio), the cell lysate, d2-labeled cAMP and anti-cAMP Europium Cryptate labeled antibodies (Cisbio) were reacted in a 384-well white microplate. Then, a fluorescence intensity ratio (measurement wavelength 665 nm/620 nm) was measured using a multi-plate reader (PHERAstar FSX, BMG LABTECH Japan). The fluorescence intensity ratio of each sample was converted to a cAMP content using a standard curve. The cAMP content was converted as a percentage of the control value to calculate a cAMP production rate. The cAMP production rate was plotted against the test compound concentration using Prism (Graph Pad Software Inc.) to calculate the IC50 value. In the tables, IC50<3.0 µM was indicated as A, and 3.0 µM≤IC50<30 µM was indicated as B. If activity was observed but the IC50 value could not be calculated, it was indicated as C.
A general note: Cyclic AMP is a second messenger, typically raised through Gs and lowered through Gi signalling.
In the case of `CN1C(=O)C(NC(N)=O)Cc2cc(NC(=O)OC3CCCC3)cc(Oc3ccccc3C#N)c21` (stereo not drawn) [Example 4, cyclopentyl (8-(2-cyanophenoxy)-1-methyl-2-oxo-3-ureido-1,2,3,4-tetrahydroquinoline-6-yl)carbamate], the IC50 – broadly, the concentration needed to halve the response being measured – is under 3 µM.

In turn, `CN1C(=O)[C@H](NC(N)=O)Cc2cccc(C(O)c3ccccc3Cl)c21` (stereo partly drawn) [Example 12, 1-((3R)-8-((2-chlorophenyl)(hydroxy)methyl)-1-methyl-2-oxo-1,2,3,4-tetrahydroquinoline-3-yl)urea] came in with an IC50 of over 30 µM.

Regarding `CN1C(=O)C(NC(N)=O)Cc2cccc(C(C)(C)c3ccccc3)c21` (stereo not drawn) [Example 14, 1-(1-methyl-2-oxo-8-(2-phenylpropan-2-yl)-1,2,3,4-tetrahydroquinoline-3-yl)urea], the IC50 lay in the range of 3 to 30 µM.

With `CN1C(=O)[C@H](N2CCOC2=O)Cc2cccc(Oc3cc(F)ccc3Cl)c21` [Example 25, (R)-3-(8-(2-chloro-5-fluorophenoxy)-1-methyl-2-oxo-1,2,3,4-tetrahydroquinoline-3-yl)oxazo lidine-2-one], the IC50 is over 30 µM.

`C=C(c1ccccc1Cl)c1cccc2c1N(C)C(=O)[C@H](NC(N)=O)C2` [Example 13, (R)-1-(8-(1-(2-chlorophenyl)vinyl)-1-methyl-2-oxo-1,2,3,4-tetrahydroquinoline-3-yl)urea]: the IC50 is under 3 µM.

For `CN1C(=O)C(NC(N)=O)Cc2cc(NC(=O)OC3CCCC3)cc(Oc3cccc(C(F)(F)F)n3)c21` (stereo not drawn) [Example 5, cyclopentyl (1-methyl-2-oxo-8-((6-trifluoromethylpyridin-2-yl)oxy)-3-ureido-1,2,3,4-tetrahydroquinoline-6-yl)carbamate], the IC50 is under 3 µM.

For the molecule `CN1C(=O)[C@H](Nc2ncc[nH]2)Cc2cccc(Oc3cc(F)ccc3Cl)c21` [Example 34, (R)-3-((1H-imidazole-2-yl)amino)-8-(2-chloro-5-fluorophenoxy)-1-methyl-3,4-dihydroquinoline-2(1H)-one], the IC50 lay within 3 to 30 µM.

Regarding `CN1C(=O)C(CC(N)=O)Cc2cc(NC(=O)OC3CCCC3)cc(Oc3ccccc3C#N)c21` (stereo not drawn) [Example 3, cyclopentyl (3-(2-amino-2-oxoethyl)-8-(2-cyanophenoxy)-1-methyl-2-oxo-1,2,3,4-tetrahydroquinoline-6-yl)carbamate], the IC50 is under 3 µM.

Molecule `CC1(c2ccccc2)CC(C)(C)N2C(=O)[C@H](NC(N)=O)Cc3cccc1c32` (stereo partly drawn) [Example 15, 1-((2R)-5,5,7-trimethyl-3-oxo-7-phenyl-2,3,6,7-tetrahydro-1H,5H-pyrido[3,2,1-ij]quinolin-2-yl)urea] showed an IC50 of under 3 µM.

`CN1C(=O)[C@H](NC(N)=O)Cc2cccc(OCc3ccccc3)c21` [Example 18, (R)-1-(8-(benzyloxy)-1-methyl-2-oxo-1,2,3,4-tetrahydroquinoline-3-yl)urea]: the IC50 is over 30 µM.

Take `CN1C(=O)[C@H](NC(N)=O)Cc2cccc(C(=O)c3ccccc3Cl)c21` [Example 11, (R)-1-(8-(2-chlorobenzoyl)-1-methyl-2-oxo-1,2,3,4-tetrahydroquinoline-3-yl)urea]: the IC50 was under 3 µM.

With `CN1C(=O)[C@H](NC(N)=O)Cc2sc(C#N)c(Cc3cc(F)ccc3Cl)c21` [Example 40, (R)-1-(3-(2-chloro-5-fluorobenzyl)-2-cyano-4-methyl-5-oxo-4,5,6,7-tetrahydrothieno[3,2-b]pyridin-6-yl)urea], the IC50 is under 3 µM.

`Cc1ccc2c(c1Oc1cc(F)ccc1Cl)N(C)C(=O)C1(NC(N)=O)CC21` (stereo not drawn) [Example 32, 1-(4-(2-chloro-5-fluorophenoxy)-3,5-dimethyl-2-oxo-1,2,3,7b-tetrahydro-1aH-cyclopropa[c]quinoline-1a-yl)urea] had a 50% inhibitory concentration (IC50) of 3 to 30 µM.

Regarding `CN1C(=O)[C@H](NC(N)=O)Cc2sc(CO)c(Cc3cc(F)ccc3Cl)c21` [Example 41, (R)-1-(3-(2-chloro-5-fluorobenzyl)-2-(hydroxymethyl)-4-methyl-5-oxo-4,5,6,7-tetrahydrothieno[3,2-b]pyridin-6-yl)urea], the IC50 is under 3 µM.

The molecule `CN1C(=O)C(OC(N)=O)Cc2cccc(Oc3cc(F)ccc3Cl)c21` (stereo not drawn) [Example 26, 8-(2-chloro-5-fluorophenoxy)-1-methyl-2-oxo-1,2,3,4-tetrahydroquinoline-3-yl carbamate] registered an IC50 of under 3 µM.

Turning to `CN1C(=O)[C@H](NC2=NC(=O)CN2)Cc2cccc(Oc3cc(F)ccc3Cl)c21` [Example 33, (R)-8-(2-chloro-5-fluorophenoxy)-1-methyl-3-((4-oxo-4,5-dihydro-1H-imidazole-2-yl)amino)-3,4-dihydroquinoline-2(1H)-one], the IC50 lay within 3 to 30 µM.

`CC1(c2ccccc2)C(=O)C(C)(C)N2C(=O)[C@H](NC(N)=O)Cc3cccc1c32` (stereo partly drawn) [Example 17, 1-((2R)-5,5,7-trimethyl-3,6-dioxo-7-phenyl-2,3,6,7-tetrahydro-1H,5H-pyrido[3,2,1-ij]quinoline-2-yl)urea] displayed an IC50 of under 3 µM.

For `CN1C(=O)[C@H](N2CCNC2=O)Cc2cccc(Oc3cc(F)ccc3Cl)c21` [Example 24, (R)-8-(2-chloro-5-fluorophenoxy)-1-methyl-3-(2-oxoimidazolidine-1-yl)-3,4-dihydroquinoline-2(1H)-one], the IC50 lay within 3 to 30 µM.

Take `CC(c1cc(F)ccc1Cl)c1nsc2c1N(C)C(=O)[C@H](NC(N)=O)C2` (stereo partly drawn) [Example 43, 1-((6R)-3-(1-(2-chloro-5-fluorophenyl)ethyl)-4-methyl-5-oxo-4,5,6,7-tetrahydroisothiazolo[4 ,5-b]pyridine-6-yl)urea]: the IC50 was under 3 µM.

With `CN1C(=O)C(CNC(N)=O)Cc2cccc(Oc3ccccc3)c21` (stereo not drawn) [Example 10, 1-((1-methyl-2-oxo-8-phenoxy-1,2,3,4-tetrahydroquinoline-3-yl)methyl)urea], the IC50 was in the range of 3 to 30 µM.

`C[C@H](OC(=O)Nc1cc2c(c(Oc3cccc(C(F)(F)F)n3)c1)N(C)C(=O)C(NC(N)=O)C2)C(F)(F)F` (stereo partly drawn) [Example 6, (S)-1,1,1-trifluoropropan-2-yl (1-methyl-2-oxo-8-((6-trifluoromethylpyridin-2-yl)oxy)-3-ureido-1,2,3,4-tetrahydroquinoline-6-yl)carbamate] yielded an IC50 of under 3 µM.

In turn, `CN1C(=S)C(NC(N)=O)Cc2cccc(Oc3cc(F)ccc3Cl)c21` (stereo not drawn) [Example 27, 1-(8-(2-chloro-5-fluorophenoxy)-1-methyl-2-thioxo-1,2,3,4-tetrahydroquinoline-3-yl)urea] gave an IC50 of under 3 µM.

The molecule `COC(=O)N[C@@H]1Cc2cccc(Oc3cc(F)ccc3Cl)c2N(C)C1=O` [Example 22, methyl (R)-(8-(2-chloro-5-fluorophenoxy)-1-methyl-2-oxo-1,2,3,4-tetrahydroquinoline-3-yl)carbamate] came in with an IC50 of under 3 µM.

Molecule `CN1C(=O)[C@H](NC(N)=O)Cc2csc(Cc3cc(F)ccc3Cl)c21` [Example 36, (R)-1-(7-(2-chloro-5-fluorobenzyl)-1-methyl-2-oxo-1,2,3,4-tetrahydrothieno[3,4-b]pyridine-3-yl)urea] returned an IC50 of under 3 µM.

For the molecule `Cc1ccc2cc(NC(N)=O)c(=O)n(C)c2c1Oc1cc(F)ccc1Cl` [Example 31, 1-(8-(2-chloro-5-fluorophenoxy)-1,7-dimethyl-2-oxo-1,2-dihydroquinoline-3-yl)urea], the IC50 is over 30 µM.

`CC(C)OC(=O)Nc1cc2c(c(Oc3cccc(C(F)(F)F)n3)c1)N(C)C(=O)C(NC(N)=O)C2` (stereo not drawn) [Example 9, isopropyl (1-methyl-2-oxo-8-((6-trifluoromethylpyridin-2-yl)oxy)-3-ureido-1,2,3,4-tetrahydroquinoline-6-yl)carbamate] had an IC50 of under 3 µM.

`CN1C(=O)C(CC(N)=O)Cc2cc(NC(=O)OC3CCCC3)cc(Oc3ccccc3)c21` (stereo not drawn) [Example 2, cyclopentyl (3-(2-amino-2-oxoethyl)-1-methyl-2-oxo-8-phenoxy-1,2,3,4-tetrahydroquinoline-6-yl)carbam ate] gave an IC50 of under 3 µM.

For the molecule `Cc1ccc2c(c1Oc1cc(F)ccc1Cl)N(C)C(=O)[C@H](NC(N)=O)[C@H]2O` (relative stereo) [Example 21, 1-((3R^*,4S^*)-8-(2-chloro-5-fluorophenoxy)-4-hydroxy-1,7-dimethyl-2-oxo-1,2,3,4-tetrahydroquinoline-3-yl)urea], the concentration for half-maximal inhibition (IC50) is under 3 µM.

`Cc1ccc2c(c1Oc1cc(F)ccc1Cl)N(C)C(=O)[C@H](NC(=O)c1ccccc1)C2` [Example 20, (R)-N-(8-(2-chloro-5-fluorophenoxy)-1,7-dimethyl-2-oxo-1,2,3,4-tetrahydroquinoline-3-yl)b enzamide] came in with an IC50 of under 3 µM.

In the case of `Cc1ccc2c(c1Oc1cc(F)ccc1Cl)N(C)C(=O)[C@H](NC(=O)N1CCOCC1)C2` [Example 19, (R)-N-(8-(2-chloro-5-fluorophenoxy)-1,7-dimethyl-2-oxo-1,2,3,4-tetrahydroquinoline-3-yl)m orpholine-4-carboxamide], the IC50 is under 3 µM.
